Consider 5 molecules from ChEMBL document CHEMBL1201862, “PubChem BioAssay data set” (2004).

Assay [1] concerns the target Serine/threonine-protein phosphatase (Homo sapiens, UniProt Q9BPW0). Put plainly: inhibition of protein phosphatase 5 activity – biochemical, fluorescence, dose response (AID 2395).
In assay [2] the target is T1, Tyrosyl-DNA phosphodiesterase 2 (Homo sapiens, UniProt O95551).
T1 sequence (O95551 whole entry): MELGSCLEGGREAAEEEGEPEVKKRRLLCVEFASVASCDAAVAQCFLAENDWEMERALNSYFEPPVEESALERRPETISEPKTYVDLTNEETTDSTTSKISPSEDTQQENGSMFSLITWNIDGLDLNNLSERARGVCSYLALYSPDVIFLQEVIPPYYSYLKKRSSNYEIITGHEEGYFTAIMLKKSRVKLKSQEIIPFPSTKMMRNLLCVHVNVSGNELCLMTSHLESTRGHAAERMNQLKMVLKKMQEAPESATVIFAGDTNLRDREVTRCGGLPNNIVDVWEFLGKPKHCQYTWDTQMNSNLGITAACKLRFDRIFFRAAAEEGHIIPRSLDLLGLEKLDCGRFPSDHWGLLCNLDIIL
The experiment in a line: potency against TDP2 phosphodiesterase activity – biochemical, epi absorbance, IC50, dose response (AID 743297).

Assay [3] concerns the target T2, Sentrin-specific protease 7 (Homo sapiens, UniProt Q9BQF6).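 Note: Luminescence-based dose-response confirmation of ultra-high-throughput screening hits, measuring inhibition of SENP7.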
T2 sequence (Q9BQF6 whole entry): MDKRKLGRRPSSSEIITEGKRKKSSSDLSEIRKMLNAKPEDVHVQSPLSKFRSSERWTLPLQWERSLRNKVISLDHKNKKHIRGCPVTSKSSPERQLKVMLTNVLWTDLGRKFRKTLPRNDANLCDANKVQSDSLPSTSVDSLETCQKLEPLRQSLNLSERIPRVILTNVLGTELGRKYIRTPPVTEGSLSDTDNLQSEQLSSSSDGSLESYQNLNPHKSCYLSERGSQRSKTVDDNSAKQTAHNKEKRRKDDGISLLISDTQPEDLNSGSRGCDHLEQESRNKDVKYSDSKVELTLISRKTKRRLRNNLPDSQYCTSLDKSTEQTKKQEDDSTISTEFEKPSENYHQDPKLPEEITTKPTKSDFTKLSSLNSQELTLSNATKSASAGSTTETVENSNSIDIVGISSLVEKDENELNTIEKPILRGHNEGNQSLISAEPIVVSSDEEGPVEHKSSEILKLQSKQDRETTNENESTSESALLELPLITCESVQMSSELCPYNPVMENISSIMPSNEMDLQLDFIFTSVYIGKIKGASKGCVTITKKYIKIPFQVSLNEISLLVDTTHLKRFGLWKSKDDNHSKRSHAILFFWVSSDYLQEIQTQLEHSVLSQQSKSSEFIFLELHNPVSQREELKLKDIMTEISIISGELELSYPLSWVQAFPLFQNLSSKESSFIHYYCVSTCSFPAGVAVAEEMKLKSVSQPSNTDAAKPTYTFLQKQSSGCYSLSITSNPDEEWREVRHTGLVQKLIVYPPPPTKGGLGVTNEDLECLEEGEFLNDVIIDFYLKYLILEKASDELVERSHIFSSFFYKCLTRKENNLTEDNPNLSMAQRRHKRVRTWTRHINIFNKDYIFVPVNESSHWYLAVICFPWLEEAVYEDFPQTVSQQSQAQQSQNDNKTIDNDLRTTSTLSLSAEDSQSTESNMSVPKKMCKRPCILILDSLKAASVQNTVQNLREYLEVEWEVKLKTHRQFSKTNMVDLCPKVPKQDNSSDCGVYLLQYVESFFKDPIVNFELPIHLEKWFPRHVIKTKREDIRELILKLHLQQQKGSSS
Type of assay: functional.

In assay [4] the target is Serine/threonine-protein phosphatase PP1-alpha catalytic subunit (Homo sapiens, UniProt P62136). Put plainly: inhibition of protein phosphatase 1 activity – biochemical, fluorescence, dose response (AID 2394).
Assay [5] is described as follows: reduction of Shn3 3'UTR-driven luciferase in osteoblasts – cell-based, Clone20 osteoblasts, firefly luciferase, cherry-picked, dose response (AID 624132).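 Note: firefly luciferase luminescence from reporter carrying the Shn3 3'UTR in osteoblasts.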 Format: functional.
Assay [6] concerns the target T3, Protein RecA (Mycobacterium tuberculosis, UniProt P9WHJ3).
T3 sequence (P9WHJ3 whole entry): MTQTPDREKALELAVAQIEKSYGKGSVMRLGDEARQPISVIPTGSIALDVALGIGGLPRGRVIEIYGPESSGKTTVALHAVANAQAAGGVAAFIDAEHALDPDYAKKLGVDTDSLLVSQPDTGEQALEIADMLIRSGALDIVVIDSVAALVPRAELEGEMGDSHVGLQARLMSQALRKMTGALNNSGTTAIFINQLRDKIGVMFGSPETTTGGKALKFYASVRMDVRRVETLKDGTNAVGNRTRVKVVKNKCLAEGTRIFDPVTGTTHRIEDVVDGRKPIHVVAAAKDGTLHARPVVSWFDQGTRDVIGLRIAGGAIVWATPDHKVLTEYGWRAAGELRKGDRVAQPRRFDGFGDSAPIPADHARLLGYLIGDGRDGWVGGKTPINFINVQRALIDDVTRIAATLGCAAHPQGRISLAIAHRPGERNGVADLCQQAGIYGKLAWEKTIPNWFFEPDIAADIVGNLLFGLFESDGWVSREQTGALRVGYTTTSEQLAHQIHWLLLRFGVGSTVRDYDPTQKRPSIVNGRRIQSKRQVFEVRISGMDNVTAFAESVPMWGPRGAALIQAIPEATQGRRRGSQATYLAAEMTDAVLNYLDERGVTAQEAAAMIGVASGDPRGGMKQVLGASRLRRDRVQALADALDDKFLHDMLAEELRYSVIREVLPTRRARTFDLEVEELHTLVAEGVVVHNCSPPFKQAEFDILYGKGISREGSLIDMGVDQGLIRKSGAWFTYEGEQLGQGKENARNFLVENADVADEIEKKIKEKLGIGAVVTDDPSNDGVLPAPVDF
The experiment in a line: Fluorescence Cell-Free Homogeneous Dose Retest to Identify Inhibitors of RecA-Intein Splicing Activity. [Related pubchem assays (depositor defined):AID2097, AID2223, AID489010, AID492950]. Type of assay: functional.

Assay [7] has as its system INS1. Put plainly: INS-1E survival protection against cytokine death – cell-based, luminescence, retest, dose response (AID 449756).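 Note: cell death triggered by IL-1 beta plus TNF-alpha plus IFN-gamma mixture; protective hits raise ATP signal compared with cytokine alone wells.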 Type of assay: functional. To be noted: Rattus norvegicus.
The nature of assay [8]: cells. Format: functional.
The target in assay [9] is Beta Lactamase (Pseudomonas aeruginosa, UniProt Q932Y6). The experiment in a line: BLA reporter interference, concentration series – BLA reporter cells, FRET fluorescence, artefact control for TLR9-MyD88 binding inhibitor project, dose response (AID 588341).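 Note: cell based assay in CHO-K1 cells stably expressing beta-lactamase.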 Format: cell-based.
The target of assay [10] is T4, Interleukin-8 (Homo sapiens, UniProt P10145).
T4 sequence (P10145 whole entry): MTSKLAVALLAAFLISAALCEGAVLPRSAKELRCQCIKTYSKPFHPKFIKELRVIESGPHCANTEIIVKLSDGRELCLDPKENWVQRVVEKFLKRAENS
Put plainly: SAR analysis of GM-Tri-DAP induced IL-8 secretion in MCF-7/NOD1 cells - Set 2. [Related pubchem assays (depositor defined):AID1575, AID1578, AID2333]. Format: functional, cell-based.

Assay [11] concerns the target Glucose-6-phosphate 1-dehydrogenase (Homo sapiens, UniProt P11413). The experiment in a line: inhibition of Homo sapiens G6PD, dose series – biochemical, fluorescence, selectivity assay for P. falciparum G6PD inhibitor project, dose response (AID 504792). Type of assay: functional.

Calls of active or inactive are those of the source. Where only a bound is given, the exact number is not on record here.

Serine/threonine-protein phosphatase PP1-alpha catalytic subunit, sequence (P62136 whole entry): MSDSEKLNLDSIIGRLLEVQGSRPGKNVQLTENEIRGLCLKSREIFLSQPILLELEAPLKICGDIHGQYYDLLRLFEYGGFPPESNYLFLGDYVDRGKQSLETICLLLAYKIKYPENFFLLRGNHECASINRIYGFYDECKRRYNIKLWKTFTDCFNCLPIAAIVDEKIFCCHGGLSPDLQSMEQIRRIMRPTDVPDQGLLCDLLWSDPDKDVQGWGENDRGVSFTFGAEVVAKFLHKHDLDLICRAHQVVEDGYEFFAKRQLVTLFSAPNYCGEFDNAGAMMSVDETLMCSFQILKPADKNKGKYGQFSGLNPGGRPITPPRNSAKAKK
Serine/threonine-protein phosphatase, sequence (Q9BPW0 whole entry): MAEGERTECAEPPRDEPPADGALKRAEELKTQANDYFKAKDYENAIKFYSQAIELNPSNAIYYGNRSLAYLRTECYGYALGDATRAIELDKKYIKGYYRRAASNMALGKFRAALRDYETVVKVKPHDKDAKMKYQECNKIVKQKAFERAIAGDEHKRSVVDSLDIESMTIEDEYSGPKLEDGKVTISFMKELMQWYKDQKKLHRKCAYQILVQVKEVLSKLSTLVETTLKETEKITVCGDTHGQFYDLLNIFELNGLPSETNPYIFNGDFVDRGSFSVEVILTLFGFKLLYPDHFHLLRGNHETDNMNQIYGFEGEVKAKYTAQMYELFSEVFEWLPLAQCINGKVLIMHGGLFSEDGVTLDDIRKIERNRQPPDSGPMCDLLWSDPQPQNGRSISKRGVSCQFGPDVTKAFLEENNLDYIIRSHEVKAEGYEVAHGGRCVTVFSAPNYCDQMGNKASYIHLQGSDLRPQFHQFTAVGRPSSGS
Beta Lactamase, sequence (Q932Y6 whole entry): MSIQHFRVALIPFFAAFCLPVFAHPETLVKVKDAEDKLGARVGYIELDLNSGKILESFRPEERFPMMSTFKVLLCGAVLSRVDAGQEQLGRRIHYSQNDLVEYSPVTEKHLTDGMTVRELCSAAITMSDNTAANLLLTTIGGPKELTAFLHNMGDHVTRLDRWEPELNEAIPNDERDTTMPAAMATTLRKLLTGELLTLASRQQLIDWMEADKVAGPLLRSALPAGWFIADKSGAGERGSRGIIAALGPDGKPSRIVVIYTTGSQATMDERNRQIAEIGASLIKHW
Glucose-6-phosphate 1-dehydrogenase, sequence (P11413 whole entry): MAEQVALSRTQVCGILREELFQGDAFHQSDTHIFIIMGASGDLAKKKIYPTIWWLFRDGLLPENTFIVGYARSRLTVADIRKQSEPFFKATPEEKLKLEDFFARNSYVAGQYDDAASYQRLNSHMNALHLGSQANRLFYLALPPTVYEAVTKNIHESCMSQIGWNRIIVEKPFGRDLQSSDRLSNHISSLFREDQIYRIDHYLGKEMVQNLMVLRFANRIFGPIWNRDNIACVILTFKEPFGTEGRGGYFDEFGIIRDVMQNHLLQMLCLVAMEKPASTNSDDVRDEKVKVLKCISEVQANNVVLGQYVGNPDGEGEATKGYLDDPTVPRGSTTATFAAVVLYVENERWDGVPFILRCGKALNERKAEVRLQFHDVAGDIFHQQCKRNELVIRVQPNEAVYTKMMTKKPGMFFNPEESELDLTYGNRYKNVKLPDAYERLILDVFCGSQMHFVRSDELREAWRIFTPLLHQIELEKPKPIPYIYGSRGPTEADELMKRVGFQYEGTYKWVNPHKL

Broadly, the IC50 is the midpoint of a concentration-inhibition curve. As for `O=C(NC1(O)C(=O)c2ccccc2C1=O)c1ccc(C(F)(F)F)cc1`, the IC50 is > 0.828 µM (active) in assay [1], 3.85 µM (active) in assay [2], 3.51 µM (active) in assay [3] and > 67 µM (not active) in assay [4].
As a reminder, the AC50 is the concentration at which the activity in the assay is half-maximal. For orientation: EC50 means the concentration at which the effect is half-maximal. As to `Cn1c(=O)[nH]c(=O)c2c1nc([N+](=O)[O-])n2Cc1ccccc1`, the AC50 in [5] is 1.9 µM (active); in assay [7], 7.36 µM (active). The 50% effective concentration (EC50) in [6] is 5.87 µM (active). The IC50 in assay [8] is 4.75 µM (active); in assay [9], > 49.8 µM (inactive); in [10] it was 2.16 µM (active); in assay [11], 47.9 µM (inactive).
Turning to `O=C(NC1(O)C(=O)c2ccccc2C1=O)c1c(Cl)cccc1Cl`, the IC50 in assay [1] is > 2.48 µM (active); in [2], 4.2 µM (active); in assay [3], 3.76 µM (active); in assay [4] it was > 67 µM (not active). For the same molecule, in [6], the EC50 was 28.6 µM (active).
With `O=C(COC(=O)c1ccc([N+](=O)[O-])s1)Nc1ncc(C(F)(F)F)cc1Cl`, the IC50 in assay [3] is 10.5 µM (active).
For `CCN(c1ccccc1)c1cc2ccccc2c(=O)[nH]1`, in assay [6], the EC50 was > 380 µM (inactive). Further, the IC50 in assay [3] is 3.37 µM (active).
